Reference: the NIST ThermoML archive (doi:10.1016/j.tca.2016.04.001)

Legend:
[1] = xn = mol fraction of the nth substance listed; conditions: 87 kPa, Liquid, Vibrating tube method
[2] = 87 kPa, Liquid, Vibrating tube method

OCc1ccccc1 [benzenemethanol] + CC(=O)OC(C)(C)C
[1], x1 = 1
Conditions | mass density [kg/m3]
293.15 K | 1045.21
298.15 K | 1041.38
303.15 K | 1037.5
308.15 K | 1033.63
313.15 K | 1029.71

OCc1ccccc1 [benzenemethanol]
[2]
Conditions | mass density [kg/m3]
293.15 K | 1045.21
298.15 K | 1041.38
303.15 K | 1037.5
308.15 K | 1033.63
313.15 K | 1029.71

C=COC(C)=O [vinyl acetate] + OCc1ccccc1
mass density [kg/m3], [1]
Conditions | 293.15 K | 298.15 K | 303.15 K | 308.15 K | 313.15 K
x2 = 0 | 932.41 | 926.01 | 919.56 | 913.07 | 906.52
x2 = 0.0504 | 940.17 | 934.2 | 928.1 | 922 | 915.06
x2 = 0.0954 | 947.04 | 941.4 | 935.7 | 930 | 922.62
x2 = 0.1987 | 961.08 | 955.4 | 949.66 | 943.89 | 938.08
x2 = 0.2999 | 974.18 | 968.88 | 963.51 | 958.06 | 952.57
x2 = 0.3947 | 985.63 | 980.52 | 975.38 | 970.21 | 965
x2 = 0.5005 | 997.61 | 992.77 | 987.91 | 983.01 | 978.09
x2 = 0.5991 | 1008.19 | 1003.62 | 998.97 | 994.32 | 989.64
x2 = 0.7047 | 1019.12 | 1014.77 | 1010.36 | 1005.95 | 1001.51
x2 = 0.8037 | 1028.4 | 1024.23 | 1020.02 | 1015.85 | 1011.55
x2 = 0.9067 | 1037.37 | 1033.39 | 1029.37 | 1025.33 | 1021.27

CC(=O)OC(C)(C)C [1,1-dimethylethyl ethanoate] + OCc1ccccc1
mass density [kg/m3], [1]
Conditions | 293.15 K | 298.15 K | 303.15 K | 308.15 K | 313.15 K
x2 = 0 | 866.95 | 861.41 | 855.79 | 850.17 | 844.49
x2 = 0.047 | 874.64 | 869.18 | 863.68 | 858.15 | 852.61
x2 = 0.0925 | 882.2 | 876.83 | 871.43 | 865.99 | 860.52
x2 = 0.2017 | 900.32 | 895.16 | 889.77 | 884.75 | 879.5
x2 = 0.3001 | 916.98 | 912 | 906.99 | 901.96 | 896.9
x2 = 0.4 | 934.1 | 929.3 | 924.47 | 919.62 | 914.74
x2 = 0.4999 | 951.7 | 947.08 | 942.4 | 937.73 | 933.04
x2 = 0.6002 | 969.63 | 965.17 | 960.68 | 956.18 | 951.66
x2 = 0.7027 | 988.3 | 984.07 | 979.75 | 975.42 | 971.06
x2 = 0.7996 | 1006.55 | 1002.4 | 998.24 | 994.06 | 989.87
x2 = 0.9059 | 1026.81 | 1022.83 | 1018.83 | 1014.82 | 1010.79
x2 = 0.9528 | 1035.96 | 1032.06 | 1028.11 | 1024.17 | 1020.21

OC(CCl)CCl [1,3-dichloro-2-propanol] + CCOC(C)=O
mass density [kg/m3], [1]
Conditions | 293.15 K | 298.15 K | 303.15 K | 308.15 K | 313.15 K
x1 = 0.0442 | 921.07 | 915.01 | 909.02 | 902.88 | 896.68
x1 = 0.0967 | 945.13 | 939.12 | 933.16 | 927.05 | 921.2
x1 = 0.1971 | 991 | 985 | 979.1 | 972.97 | 967.2
x1 = 0.3019 | 1039.05 | 1033.15 | 1027.3 | 1021.22 | 1015.41
x1 = 0.3939 | 1081.4 | 1075.55 | 1069.64 | 1063.7 | 1057.83
x1 = 0.4995 | 1130.18 | 1124.35 | 1118.48 | 1112.58 | 1106.65
x1 = 0.6006 | 1176.92 | 1171.1 | 1165.25 | 1159.37 | 1153.45
x1 = 0.6993 | 1222.62 | 1216.83 | 1210.95 | 1205.06 | 1199.14
x1 = 0.8006 | 1269.78 | 1263.96 | 1258.07 | 1252.15 | 1246.2
x1 = 0.9011 | 1316.79 | 1310.89 | 1304.97 | 1299 | 1293.1
x1 = 0.953 | 1340.9 | 1334.99 | 1329.01 | 1323.02 | 1316.98
x1 = 1 | 1362.66 | 1356.74 | 1350.72 | 1344.71 | 1338.65

CC(=O)OC(C)(C)C [1,1-dimethylethyl ethanoate] + OC(CCl)CCl
[1], x2 = 0
Conditions | mass density [kg/m3]
293.15 K | 866.95
298.15 K | 861.41
303.15 K | 855.79
308.15 K | 850.17
313.15 K | 844.49

CCOC(C)=O [ethyl acetate] + OCc1ccccc1
[1], x2 = 0
Conditions | mass density [kg/m3]
293.15 K | 900.71
298.15 K | 894.65
303.15 K | 888.52
308.15 K | 882.35
313.15 K | 876.12
